Test [1] deals with T1, C-C chemokine receptor type 2 (Homo sapiens, UniProt P41597). The experiment in a line: Binding affinity at human CCR2 receptor.
In test [2] the target is T1, C-C chemokine receptor type 2. The experiment in a line: Antagonist activity at CCR2 receptor expressed in THP1 cells assessed as inhibition of MCP-1-induced chemotaxis.

The source of these data is ChEMBL document CHEMBL1145562, “Substituted dipiperidine alcohols as potent CCR2 antagonists” (Bioorg Med Chem Lett, 2008).

One may read the IC50 as the concentration at which inhibition is half-maximal.

T1 sequence (P41597 whole entry): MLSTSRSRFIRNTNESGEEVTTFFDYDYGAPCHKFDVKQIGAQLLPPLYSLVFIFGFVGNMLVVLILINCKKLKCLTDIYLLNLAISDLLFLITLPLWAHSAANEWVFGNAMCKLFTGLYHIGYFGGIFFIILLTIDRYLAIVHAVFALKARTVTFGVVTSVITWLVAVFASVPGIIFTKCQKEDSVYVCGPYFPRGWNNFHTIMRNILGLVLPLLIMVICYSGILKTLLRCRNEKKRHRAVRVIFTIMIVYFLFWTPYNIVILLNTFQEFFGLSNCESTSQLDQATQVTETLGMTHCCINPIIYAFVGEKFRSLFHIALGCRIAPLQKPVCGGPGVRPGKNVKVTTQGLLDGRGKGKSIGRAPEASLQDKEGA

In the case of `O=C(/C=C/c1cc(F)c(F)c(F)c1)N1CCC([C@@H](CO)N2CCC(c3c[nH]c4ccccc34)CC2)CC1`, the values for the IC50 in test [1] and in test [2] were 2.4 nM and 3.5 nM, respectively.
`Nc1ccc2[nH]cc(C3CCN(C(CO)C4CCN(C(=O)/C=C/c5cc(F)c(F)c(F)c5)CC4)CC3)c2c1` (configuration not stated) had an IC50 in test [1] of 1 nM.
In test [1], `COC(=O)c1ccc2[nH]cc(C3CCN(C(CO)C4CCN(C(=O)/C=C/c5cc(F)c(F)c(F)c5)CC4)CC3)c2c1` (configuration not stated) registered an IC50 of 20 nM.
Same read-out and setting: then `O=C(/C=C/c1cccc(Br)c1)N1CCC(C(CO)N2CCC(c3c[nH]c4ccccc34)CC2)CC1` (configuration not stated), with 9 nM.
The compound `CC(=O)Nc1ccc2[nH]cc(C3CCN(C(CO)C4CCN(C(=O)/C=C/c5cc(F)c(F)c(F)c5)CC4)CC3)c2c1` (configuration not stated) gave an IC50 in test [1] of 2 nM.
Take `O=C(/C=C/c1ccc(F)c(Br)c1)N1CCC(C(CO)N2CCC(c3c[nH]c4ccccc34)CC2)CC1` (configuration not stated): the half-inhibitory concentration (IC50) in test [1] came to 2 nM.
On the same count and under the same terms, then `CN(C)CC(C1CCN(C(=O)/C=C/c2cc(F)c(F)c(F)c2)CC1)N1CCC(c2c[nH]c3ccccc23)CC1` (configuration not stated), with 4800 nM; and `COC(=O)c1ccc2[nH]cc(C3CCN(C(CO)C4CCN(C(=O)Nc5ccc(Cl)c(Cl)c5)CC4)CC3)c2c1` (configuration not stated), with 50 nM.
Compound `O=C(O)c1ccc2[nH]cc(C3CCN(C(CO)C4CCN(C(=O)Nc5ccc(Cl)c(Cl)c5)CC4)CC3)c2c1` (configuration not stated) gave an IC50 in test [1] of 10 nM.
For the compound `O=C(/C=C/c1cc(F)c(F)c(F)c1)N1CCC([C@H](CO)N2CCC(c3c[nH]c4ccccc34)CC2)CC1`, in test [1], the IC50 was 10 nM.
Still for that read-out and setting: then `O=C(/C=C/c1cc(F)c(F)c(F)c1)N1CCC(C(CO)N2CCC(c3c[nH]c4ccc(O)cc34)CC2)CC1` (configuration not stated), with 1 nM.
